Patent US6344351B2, “(R)-transaminase from arthrobacter” (Kaneka Corporation, priority 1995, dated 2002)

Tests used:
[1] = tested on: (R)-form-specific transaminase of Arthrobacter sp. KNK168; assay: Reactivity of purified enzyme to carbonyl compounds, (R)-1-phenylethylamine as amino donor; assay type: biochemical; settings: for Relative Activity (%) of carbonyl compounds: purified enzyme, 25 mM carbonyl compound, 25 mM (R)-1-phenylethylamine, pH 8.5, 30° C., 1 to 3 hours, pyruvic acid = 100; for reactivity of carbonyl compound: (R)-1-phenylethylamine as amino donor
Description: Using the purified enzyme obtained in Example 9, reactivities to various carbonyl compounds using (R)-1-phenylethylamine as an amino donor were evaluated. 50 μl of a solution of the purified enzyme was added to 200 μl of a substrate solution (0.1 M Tris-HCl buffer (pH 8.5), 25 mM (R)-1-phenylethylamine, 0.1 mM pyridoxal phosphate, and 25 mM various carbonyl compounds), and the components were reacted at 30° C. for 1 to 3 hours. The reaction tube was transferred into boiling water to stop the reaction, and, thereafter, the reaction mixture was diluted five-folds with methanol. This diluted solution was analyzed by high-performance liquid chromatography using fine pack C18-5 column and using methanol/water (20:80) as an eluent solution to quantitatively analyze acetophenone formed by the reaction.

[2] = tested on: Arthrobacter species KNK168 strain; assay: Amino donor test; (R)-DMA formation by cultured cells; assay type: cell-based
Description: The cultured cells were harvested by centrifugation, and the harvested cells were suspended in a reaction mixture (pH 8.5) containing 1% of 1-(3,4-dimethoxyphenyl)-2-propanone, […] of Triton X-100, and 1% of an amino donor shown in Table 2. The components were reacted at 35° C. for 20 hours.

[3] = tested on: transaminase (intracellular enzyme) of Arthrobacter sp. KNK168; assay: Activity of the transaminase (intracellular enzyme) against typical substrates of ω-aminotransferases; assay type: biochemical
[4] = tested on: (R)-form-specific transaminase of Arthrobacter sp. KNK168; assay: Reactivity of purified transaminase of present invention to amino compounds, pyruvic acid as amino acceptor; assay type: biochemical; settings: for Relative Activity (%) of amino compounds: purified enzyme, 40 mM amino compound in substrate solution, 40 mM pyruvic acid, pH 8.3, 30° C., 1 hour, (R)-1-phenylethylamine = 100; for reactivity of amino compound: pyruvic acid as amino acceptor
Description: The differences with the ω-amino acid transaminase derived from Pseudomonas sp. F-1 (Agric. Biol. Chem., 42, 2363-2367 (1978), Agric. Biol. Chem., 43, 1043-1048 (1979), J. Biol. Chem., 258, 2260-2265 (1983)) which have been well studied among the ω-amino acid transaminases, and with the benzylamine transaminase of Okada et al. (Japanese Patent Laid-Open No. Hei 6-178685) are summarized and shown in Table 2. In a case of the transaminase action in the present invention, the data of the purified enzyme are used, and in cases of those by other two enzymes, the data of the purified enzymes which are disclosed in each of the literature publication and patent publication are used. Pyruvic acid is used as an amino acceptor in all cases.
Using the purified enzyme obtained in Example 9, reactivities to various amino compounds when using pyruvic acid as an amino acceptor were evaluated. 150 μl of a solution of the purified enzyme diluted ten-folds was added to 150 μl of a substrate solution (0.1 M potassium phosphate buffer (pH 8.3), 40 mM pyruvic acid, 0.1 mM pyridoxal phosphate, and 40 mM various amino compounds). The components were reacted at 30° C. for 1 hour. The reaction tube was transferred into boiling water to stop the reaction, and, thereafter, a part of the reaction mixture was diluted five-folds. Ten μl of 0.1 M boric acid buffer (pH 8.0) and 20 μl of an ethanol solution of 80 mM of 4-fluoro-7-nitro-2,1,3-benzoxadiazole (NBD-F) were added to 10 μl of the above-mentioned diluted reaction mixture. The components were reacted at 60° C. for 1 minute, and, thereafter, the reaction mixture was ice-cooled, and 460 μl of 5 mM HCl was added thereto. This reaction mixture was analyzed by high-performance liquid chromatography using fine pack C18-5 column and using a 0.1 M potassium phosphate buffer (pH 6.5) and CH3CN (90:10) as an eluent solution to detect formation of alanine-NBD using excitation wavelength of 470 nm and using detection wave of […]. The results thereof are shown in Table 8 in terms of relative activity in the case of using […] as a substrate.

[5] = tested on: Arthrobacter species KNK168 strain; assay: Surfactants and fatty acids as reaction additives; (R)-DMA formation by cells; assay type: cell-based
Description: The cells obtained by culturing the Arthrobacter species KNK168 strain in the R medium were suspended in a reaction mixture containing 2% of 1-(3,4-dimethoxyphenyl)-2-propanone and 4% of (RS)-1-phenylethylamine. The surfactants and fatty acids shown in Table 6 were added thereto, and the mixture was reacted at 30° C. at a pH of 8.5 for 20 hours.

[6] = 1% amino donor, 1% 1-(3,4-dimethoxyphenyl)-2-propanone, Triton X-100, pH 8.5, 35° C., 20 hours
[7] = amino acceptor 2-ketoglutaric acid, (R)-1-phenylethylamine/pyruvic acid control = 100
[8] = amino acceptor pyruvic acid, (R)-1-phenylethylamine control = 100
[9] = additive 0.1%, 2% ketone, 4% (RS)-1-phenylethylamine, 30° C., pH 8.5, 20 hours, no addition 28.1
[10] = additive 0.5%, otherwise as 0.1%

2-Decane
Relative Activity (%) of carbonyl compounds [1]: 3%

CC(CN)c1ccccc1 (racemic) [(RS)-1-Amino-2-phenylpropane]
(R)-DMA Formed (%), amino group donor ([2]; pH 8.5): 1.8%

CC(N)c1cccc2ccccc12 (racemic) [(RS)-1-Naphthylethylamine]
(R)-DMA Formed (%), amino group donor [2, 6]: 34.2%

CC(N)c1ccccc1 (racemic) [(RS)-1-phenylmethylamine]
(R)-DMA Formed (%), amino group donor [2, 6]: 3.1%

CC(N)CO (racemic) [(RS)-2-Amino-1-propanol]
(R)-DMA Formed (%), amino group donor [2, 6]: 9.6%

CCCC(C)N (racemic) [(RS)-2-Aminopentane]
function as amino donor [2]: functioned as amino donors

NC(=O)CC(N)C(=O)O (racemic) [DL-Asparagine]
Relative Activity (%) as amino donor [3, 7]: 0%

NC(=O)CCC(N)C(=O)O (racemic) [DL-Glutamine]
Relative Activity (%) as amino donor [3, 7]: 0%

NCCCCC(N)C(=O)O (racemic) [DL-Lysine]
Relative Activity (%) as amino donor [3, 7]: 0%

COc1ccc(CC(C)=O)cc1OC [1-(3,4-Dimethoxyphenyl)-2-propanone]
Relative Activity (%) of carbonyl compounds [1]: 7%

COCC(C)=O [1-Methoxy-2-propanone]
Relative Activity (%) of carbonyl compounds [1]: 16%

CCCCCCC(C)N (stereo not drawn) [1-Methylheptylamine]
Relative Activity (%) of amino compounds [4]: 47%

CCC(C)N (stereo not drawn) [1-Methylpropylamine]
Relative Activity (%) of amino compounds [4]: 1.2%

CCC(=O)Cc1ccccc1 [1-Phenyl-2-butanone]
Relative Activity (%) of carbonyl compounds [1]: 1%

O=C1CCCc2ccccc21 [1-Tetralone]
Relative Activity (%) of carbonyl compounds [1]: 1%

CC(=O)c1ccco1 [2-Acetylfuran]
Relative Activity (%) of carbonyl compounds [1]: 2%

CC(=O)c1cnccn1 [2-Acetylpyrazine]
Relative Activity (%) of carbonyl compounds [1]: 17%

CC(=O)c1ccccn1 [2-Acetylpyridine]
Relative Activity (%) of carbonyl compounds [1]: 19%

CC(=O)c1nccs1 [2-Acetylthiazole]
Relative Activity (%) of carbonyl compounds [1]: 10%

CC(=O)c1cccs1 [2-Acetylthiophene]
Relative Activity (%) of carbonyl compounds [1]: 1%

CCCCCC(C)N (stereo not drawn) [2-Heptylamine]
Relative Activity (%) of amino compounds [4]: 37%

CCC(=O)C(=O)O [2-Ketobutyric acid]
Relative Activity (%) of carbonyl compounds [1]: 7%

CC(=O)Oc1cccnc1 [3-Acetoxypyridine]
Relative Activity (%) of carbonyl compounds [1]: 1%

CC(=O)c1cccnc1 [3-Acetylpyridine]
Relative Activity (%) of carbonyl compounds [1]: 8%

CC(N)CCc1ccccc1 (stereo not drawn) [3-Aminophenylbutane]
Relative Activity (%) of amino compounds [4]: 84%
reactivity of amino compound [4]: favorable reactivities

COc1ccc(CCC(C)=O)cc1 [4-(4-Methoxyphenyl)-2-butanone]
Relative Activity (%) of carbonyl compounds [1]: 7%

CC(=O)c1ccncc1 [4-Acetylpyridine]
Relative Activity (%) of carbonyl compounds [1]: 27%

C[C@@H](N)c1ccccc1 [(R)-1-Phenylethylamine]
Relative Activity (%) of amino compounds [4]: 100%
activity of the transferase to amino donor [3]: especially high activity
Relative Activity (%) as amino donor [3, 8]: 100%

COc1ccc(C[C@@H](C)N)cc1OC [(R)-3,4-Dimethoxyaminopropane]
Relative Activity (%) of amino compounds [4]: 30%

N[C@H](CO)c1ccccc1 [(S)-2-Phenylglycinol]
Relative Activity (%) of amino compounds [4]: 180%
reactivity of amino compound [4]: favorable reactivities

CC(=O)CCc1ccccc1 [Benzyl acetone]
Relative Activity (%) of carbonyl compounds [1]: 3%

CCCCCCCCCCCCCCCC[N+](C)(C)C.[Br-] [Cetyl trimethyl ammonium bromide (CTAB), Cetyl trimethyl ammonium bromide]
(R)-DMA Formed (%), additive [5, 9]: 29.1%

CC(=O)C(C)=O [Diacetyl]
Relative Activity (%) of carbonyl compounds [1]: 10%

CCOC(=O)CC(C)=O [Ethyl acetoacetate]
Relative Activity (%) of carbonyl compounds [1]: 4%

CCOC(=O)CC(=O)c1ccccc1 [Ethyl benzoyl acetate]
Relative Activity (%) of carbonyl compounds [1]: 2%

CCOC(=O)C(C)=O [Ethyl pyruvate]
Relative Activity (%) of carbonyl compounds [1]: 27%

O=CC(=O)O [Glyoxylic acid]
Relative Activity (%) of carbonyl compounds [1]: 4%

N[C@H](CO)Cc1ccccc1 [L-Phenylalaninol]
Relative Activity (%) of amino compounds [4]: 0.8%

CCCCC/C=C\C/C=C\CCCCCCCC(=O)O [Linoleic Acid]
effect of additive on rate of reaction [5]: rate of reaction was increased
(R)-DMA Formed (%), additive ([5]; additive 2.9%): 45.1%

CCCCCCCC/C=C\CCCCCCCC(=O)O [Oleic Acid]
effect of additive on rate of reaction [5]: rate of reaction was increased
(R)-DMA Formed (%), additive ([5]; additive 2.9%): 44.9%

O=C(O)CC(=O)C(=O)O [Oxalacetic acid]
reactivity of carbonyl compound [1]: favorable reactivities
Relative Activity (%) of carbonyl compounds [1]: 87%

CC(=O)COc1ccccc1 [Phenoxy-2-propanone]
reactivity of carbonyl compound [1]: favorable reactivities
Relative Activity (%) of carbonyl compounds [1]: 83%

O=CCc1ccccc1 [Phenyl acetaldehyde]
Relative Activity (%) of carbonyl compounds [1]: 13%

CC(=O)C(=O)O [Pyruvic acid]
Relative Activity (%) of carbonyl compounds [1]: 100%

CCCCCCCCCCCCOS(=O)(=O)[O-].[Na+] [Sodium dodecyl sulfate]
effect of additive on rate of reaction [5]: rate of reaction was increased
(R)-DMA Formed (%), additive [5, 9]: 45.3%
(R)-DMA Formed (%), additive [5, 10]: 42.2%
(R)-DMA Formed (%), additive ([5]; additive 1.0%): 46.3%
(R)-DMA Formed (%), additive ([5]; additive 2.0%): 50.1%
(R)-DMA Formed (%), additive ([5]; additive 3.0%): 51.9%
(R)-DMA Formed (%), additive ([5]; additive 4.0%): 53.1%

NCCS(=O)(=O)O [Taurine]
Relative Activity (%) as amino donor [3, 7]: 0%

NCCC(N)C(=O)O (stereo not drawn) [α-2,4-Diaminobutyric acid]
Relative Activity (%) as amino donor [3, 8]: 0%

Triton X-100
(R)-DMA Formed (%), additive [5, 9]: 31.6%
(R)-DMA Formed (%), additive [5, 10]: 34.0%
